Source: patent publication US11596664B2, “Plant extracts made of Sideritis and use thereof to boost cognitive performance” (Finzelberg GmbH & Co. KG, priority 2010, dated 2023)

Tested on: serotonin absorption (serotonergic re-uptake)
Experiment: Serotonin absorption inhibition, test system according to EP 1 634 602
Type: biochemical
Conditions: reference substance at 10 μm; defines 100%
From the text: Serotonergic neurotransmission being influenced is described for plants of the genus Sideritis in the patent application EP 1 634 602. […] The experimental set-up described in paragraphs [0046] to [0054] for measuring serotonergic re-uptake rates was used for initial screening of suitable species for the tests.
50 g of the herbal drug is mixed twice with 15 times the quantity of boiling water and extracted with agitation. Both maceration extracts are allowed to stand at room temperature to cool down and combined. The two combined macerations are filtered off with a fluted filter and concentrated to a soft extract using a rotary evaporator. The extractive yields determined for the different species are shown below. In order to test for the serotonin absorption inhibition, the extracts were all weighed in at the same native content and assayed with a measuring concentration of 50 μg/ml in the test system according to EP 1 634 602.
50 g of the herb Sideritis was mixed twice at 45° C. with 15 times the quantity of a mixture of water and ethanol and extracted with agitation. Both maceration extracts were allowed to stand at room temperature to cool down and combined. The two combined macerations were filtered off with a fluted filter and concentrated to a soft extract using a rotary evaporator. The extractive yields determined for the different species are shown below. […]

COCCCC/C(=N\OCCN)c1ccc(C(F)(F)F)cc1 [fluvoxamine]
Serotonin absorption inhibition, positive control: 100%
